Test results as given in ChEMBL document CHEMBL1268847, “Discovery of orally bioavailable imidazo[1,2-a]pyrazine-based Aurora kinase inhibitors” (Bioorg Med Chem Lett, 2010).
Values after ≈ are worked out from the molar mass of the structure shown.

Tests used:
[1] = molecular target: T1, Interleukin-1 receptor-associated kinase 4 (Homo sapiens, UniProt Q9NWZ3); assay: Inhibition of IRK4
T1 sequence (Q9NWZ3 whole entry): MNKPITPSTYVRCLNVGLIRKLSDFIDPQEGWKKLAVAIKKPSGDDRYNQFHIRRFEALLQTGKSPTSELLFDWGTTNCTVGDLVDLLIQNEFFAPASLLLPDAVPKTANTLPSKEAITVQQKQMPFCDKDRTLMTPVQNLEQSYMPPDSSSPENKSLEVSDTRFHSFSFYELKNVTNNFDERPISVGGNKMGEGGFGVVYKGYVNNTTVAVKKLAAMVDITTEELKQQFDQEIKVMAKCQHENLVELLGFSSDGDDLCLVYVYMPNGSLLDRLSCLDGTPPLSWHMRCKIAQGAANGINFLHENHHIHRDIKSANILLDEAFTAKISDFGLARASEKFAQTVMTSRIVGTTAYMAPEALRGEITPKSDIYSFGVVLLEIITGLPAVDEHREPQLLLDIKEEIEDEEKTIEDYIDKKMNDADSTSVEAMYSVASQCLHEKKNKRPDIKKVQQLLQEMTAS

[2] = molecular target: Vascular endothelial growth factor receptor 2 (Homo sapiens, UniProt P35968); assay: Inhibition of VEGFR2
Sequence of Vascular endothelial growth factor receptor 2 (P35968 whole entry): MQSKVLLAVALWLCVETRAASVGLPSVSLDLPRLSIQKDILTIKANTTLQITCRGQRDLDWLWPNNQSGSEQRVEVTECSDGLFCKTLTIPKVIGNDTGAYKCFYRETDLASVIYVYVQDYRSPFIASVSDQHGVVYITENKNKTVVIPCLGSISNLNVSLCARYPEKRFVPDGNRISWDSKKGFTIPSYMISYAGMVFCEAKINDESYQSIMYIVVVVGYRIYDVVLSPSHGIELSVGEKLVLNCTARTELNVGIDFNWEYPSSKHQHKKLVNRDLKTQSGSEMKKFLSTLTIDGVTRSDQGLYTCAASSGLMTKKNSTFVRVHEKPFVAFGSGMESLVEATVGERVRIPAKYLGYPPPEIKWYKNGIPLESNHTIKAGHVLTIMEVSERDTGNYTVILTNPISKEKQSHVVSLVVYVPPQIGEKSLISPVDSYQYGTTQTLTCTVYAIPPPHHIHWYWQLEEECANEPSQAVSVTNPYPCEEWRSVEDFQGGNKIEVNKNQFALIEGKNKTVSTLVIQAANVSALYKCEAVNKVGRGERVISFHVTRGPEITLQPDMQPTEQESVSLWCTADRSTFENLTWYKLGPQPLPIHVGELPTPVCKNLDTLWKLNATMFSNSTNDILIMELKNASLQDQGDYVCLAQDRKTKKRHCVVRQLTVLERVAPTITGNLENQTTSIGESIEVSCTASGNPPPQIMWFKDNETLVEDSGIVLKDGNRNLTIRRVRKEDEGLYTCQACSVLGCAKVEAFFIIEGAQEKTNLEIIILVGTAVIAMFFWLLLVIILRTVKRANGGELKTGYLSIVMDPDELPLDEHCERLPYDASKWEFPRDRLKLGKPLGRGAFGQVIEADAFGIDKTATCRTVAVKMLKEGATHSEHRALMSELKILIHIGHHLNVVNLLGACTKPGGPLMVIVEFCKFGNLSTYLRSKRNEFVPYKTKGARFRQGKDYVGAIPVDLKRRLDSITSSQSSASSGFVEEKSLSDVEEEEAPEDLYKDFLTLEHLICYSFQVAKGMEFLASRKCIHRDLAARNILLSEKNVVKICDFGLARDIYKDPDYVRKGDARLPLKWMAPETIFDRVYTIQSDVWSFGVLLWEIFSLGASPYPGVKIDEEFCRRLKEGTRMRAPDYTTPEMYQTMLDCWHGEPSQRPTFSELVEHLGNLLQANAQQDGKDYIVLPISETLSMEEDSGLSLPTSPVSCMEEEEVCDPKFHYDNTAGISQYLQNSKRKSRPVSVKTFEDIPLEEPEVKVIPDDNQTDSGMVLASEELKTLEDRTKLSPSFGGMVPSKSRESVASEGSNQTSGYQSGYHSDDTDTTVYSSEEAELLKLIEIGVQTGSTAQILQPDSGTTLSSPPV

[3] = molecular target: T2, Serine/threonine-protein kinase Chk1 (Homo sapiens, UniProt O14757); assay: Inhibition of CHK1
T2 sequence (O14757 whole entry): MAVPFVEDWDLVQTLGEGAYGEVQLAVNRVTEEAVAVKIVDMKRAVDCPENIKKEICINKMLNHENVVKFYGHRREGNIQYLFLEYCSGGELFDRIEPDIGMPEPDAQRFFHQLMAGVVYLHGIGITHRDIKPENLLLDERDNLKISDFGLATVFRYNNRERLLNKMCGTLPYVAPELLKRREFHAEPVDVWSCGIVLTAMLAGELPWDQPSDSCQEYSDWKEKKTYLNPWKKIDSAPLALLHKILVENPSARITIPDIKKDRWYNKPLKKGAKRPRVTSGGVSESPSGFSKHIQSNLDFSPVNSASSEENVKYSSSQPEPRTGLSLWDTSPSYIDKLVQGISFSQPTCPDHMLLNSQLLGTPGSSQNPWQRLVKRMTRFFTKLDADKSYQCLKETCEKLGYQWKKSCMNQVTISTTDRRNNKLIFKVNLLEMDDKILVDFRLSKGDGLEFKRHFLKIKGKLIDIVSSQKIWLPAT

[4] = molecular target: T3, Aurora kinase A (Homo sapiens, UniProt O14965); assay: Inhibition of Aurora A
T3 sequence (O14965 whole entry): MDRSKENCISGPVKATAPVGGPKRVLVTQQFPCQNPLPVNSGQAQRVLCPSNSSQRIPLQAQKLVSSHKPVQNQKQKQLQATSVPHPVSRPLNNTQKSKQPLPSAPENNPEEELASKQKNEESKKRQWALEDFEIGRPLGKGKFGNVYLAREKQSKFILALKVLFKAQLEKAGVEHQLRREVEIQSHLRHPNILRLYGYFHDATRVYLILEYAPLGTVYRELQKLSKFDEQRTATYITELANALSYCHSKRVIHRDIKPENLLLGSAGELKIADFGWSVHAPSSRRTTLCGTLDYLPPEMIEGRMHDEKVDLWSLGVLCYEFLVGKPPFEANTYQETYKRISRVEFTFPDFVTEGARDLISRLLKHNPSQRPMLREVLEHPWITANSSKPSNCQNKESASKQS

[5] = molecular target: Aurora kinase B (Homo sapiens, UniProt Q96GD4); assay: Inhibition of Aurora B
Sequence of Aurora kinase B (Q96GD4 whole entry): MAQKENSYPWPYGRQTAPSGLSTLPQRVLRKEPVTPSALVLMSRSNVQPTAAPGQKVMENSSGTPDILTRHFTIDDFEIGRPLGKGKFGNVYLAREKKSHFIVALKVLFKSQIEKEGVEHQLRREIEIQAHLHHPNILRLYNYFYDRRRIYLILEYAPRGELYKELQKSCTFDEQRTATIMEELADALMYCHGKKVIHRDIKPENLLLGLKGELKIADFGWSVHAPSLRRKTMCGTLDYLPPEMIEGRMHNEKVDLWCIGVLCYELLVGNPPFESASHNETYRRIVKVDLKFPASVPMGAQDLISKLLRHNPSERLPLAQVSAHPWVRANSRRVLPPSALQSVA

[6] = Inhibition of Aurora kinase assessed as reduction histone H3 Ser10 phosphorylation by cell based assay
[7] = molecular target: Tyrosine-protein kinase Lck (Homo sapiens, UniProt P06239); assay: Inhibition of LCK
Sequence of Tyrosine-protein kinase Lck (P06239 whole entry): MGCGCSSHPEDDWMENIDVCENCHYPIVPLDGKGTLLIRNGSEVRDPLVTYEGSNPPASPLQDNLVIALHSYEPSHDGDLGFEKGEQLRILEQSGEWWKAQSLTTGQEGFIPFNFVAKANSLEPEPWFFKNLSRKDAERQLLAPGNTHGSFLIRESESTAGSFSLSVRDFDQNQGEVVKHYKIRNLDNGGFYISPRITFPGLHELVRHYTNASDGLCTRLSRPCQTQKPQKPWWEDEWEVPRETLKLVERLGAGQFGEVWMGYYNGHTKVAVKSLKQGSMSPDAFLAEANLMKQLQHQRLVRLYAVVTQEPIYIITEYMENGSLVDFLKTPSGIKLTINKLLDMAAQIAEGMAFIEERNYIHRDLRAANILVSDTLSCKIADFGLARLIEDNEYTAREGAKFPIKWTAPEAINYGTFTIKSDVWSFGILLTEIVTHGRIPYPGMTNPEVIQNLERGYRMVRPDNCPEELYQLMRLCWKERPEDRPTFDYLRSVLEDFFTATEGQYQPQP

[8] = AUC (0-6 hrs) in rat at 10 mg/kg, po; type: ADME, organism-based; set-up: time < 6 hr, dose 10 mg/kg, route oral; details: plasma
[9] = molecular target: Ribosomal protein S6 kinase alpha-3 (Homo sapiens, UniProt P51812); assay: Inhibition of RSK2
Sequence of Ribosomal protein S6 kinase alpha-3 (P51812 whole entry): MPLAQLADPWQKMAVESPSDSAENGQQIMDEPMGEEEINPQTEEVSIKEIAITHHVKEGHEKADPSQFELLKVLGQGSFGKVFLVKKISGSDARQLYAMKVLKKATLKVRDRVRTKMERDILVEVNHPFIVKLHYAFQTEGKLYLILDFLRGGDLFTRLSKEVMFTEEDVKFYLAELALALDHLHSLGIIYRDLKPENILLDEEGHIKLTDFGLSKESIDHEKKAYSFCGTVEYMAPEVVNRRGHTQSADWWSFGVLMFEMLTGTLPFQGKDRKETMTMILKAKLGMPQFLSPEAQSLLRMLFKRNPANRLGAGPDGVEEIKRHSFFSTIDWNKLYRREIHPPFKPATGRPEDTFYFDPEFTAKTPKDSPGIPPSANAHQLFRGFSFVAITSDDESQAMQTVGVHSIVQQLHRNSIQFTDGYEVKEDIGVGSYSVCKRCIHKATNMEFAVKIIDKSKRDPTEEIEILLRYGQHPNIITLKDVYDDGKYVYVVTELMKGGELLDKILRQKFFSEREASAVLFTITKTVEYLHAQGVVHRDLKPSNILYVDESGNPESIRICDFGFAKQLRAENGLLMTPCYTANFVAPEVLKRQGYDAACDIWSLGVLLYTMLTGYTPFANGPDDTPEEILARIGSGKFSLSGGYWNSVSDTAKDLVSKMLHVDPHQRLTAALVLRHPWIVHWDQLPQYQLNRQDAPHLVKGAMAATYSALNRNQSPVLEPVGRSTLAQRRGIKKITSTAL

[10] = molecular target: Mitogen-activated protein kinase 1 (Homo sapiens, UniProt P28482); assay: Inhibition of ERK2
Sequence of Mitogen-activated protein kinase 1 (P28482 whole entry): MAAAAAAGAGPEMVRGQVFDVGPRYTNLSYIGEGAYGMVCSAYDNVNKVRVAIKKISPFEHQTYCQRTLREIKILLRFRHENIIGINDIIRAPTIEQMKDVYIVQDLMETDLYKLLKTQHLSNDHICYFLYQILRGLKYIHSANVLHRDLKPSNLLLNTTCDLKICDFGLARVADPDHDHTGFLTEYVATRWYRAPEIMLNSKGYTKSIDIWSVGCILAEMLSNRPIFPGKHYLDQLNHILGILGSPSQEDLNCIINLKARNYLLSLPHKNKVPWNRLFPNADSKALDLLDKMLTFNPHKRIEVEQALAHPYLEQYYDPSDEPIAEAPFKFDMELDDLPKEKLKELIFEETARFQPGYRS

[11] = molecular target: Tyrosine-protein kinase JAK2 (Homo sapiens, UniProt O60674); assay: Inhibition of JAK2
Sequence of Tyrosine-protein kinase JAK2 (O60674 whole entry): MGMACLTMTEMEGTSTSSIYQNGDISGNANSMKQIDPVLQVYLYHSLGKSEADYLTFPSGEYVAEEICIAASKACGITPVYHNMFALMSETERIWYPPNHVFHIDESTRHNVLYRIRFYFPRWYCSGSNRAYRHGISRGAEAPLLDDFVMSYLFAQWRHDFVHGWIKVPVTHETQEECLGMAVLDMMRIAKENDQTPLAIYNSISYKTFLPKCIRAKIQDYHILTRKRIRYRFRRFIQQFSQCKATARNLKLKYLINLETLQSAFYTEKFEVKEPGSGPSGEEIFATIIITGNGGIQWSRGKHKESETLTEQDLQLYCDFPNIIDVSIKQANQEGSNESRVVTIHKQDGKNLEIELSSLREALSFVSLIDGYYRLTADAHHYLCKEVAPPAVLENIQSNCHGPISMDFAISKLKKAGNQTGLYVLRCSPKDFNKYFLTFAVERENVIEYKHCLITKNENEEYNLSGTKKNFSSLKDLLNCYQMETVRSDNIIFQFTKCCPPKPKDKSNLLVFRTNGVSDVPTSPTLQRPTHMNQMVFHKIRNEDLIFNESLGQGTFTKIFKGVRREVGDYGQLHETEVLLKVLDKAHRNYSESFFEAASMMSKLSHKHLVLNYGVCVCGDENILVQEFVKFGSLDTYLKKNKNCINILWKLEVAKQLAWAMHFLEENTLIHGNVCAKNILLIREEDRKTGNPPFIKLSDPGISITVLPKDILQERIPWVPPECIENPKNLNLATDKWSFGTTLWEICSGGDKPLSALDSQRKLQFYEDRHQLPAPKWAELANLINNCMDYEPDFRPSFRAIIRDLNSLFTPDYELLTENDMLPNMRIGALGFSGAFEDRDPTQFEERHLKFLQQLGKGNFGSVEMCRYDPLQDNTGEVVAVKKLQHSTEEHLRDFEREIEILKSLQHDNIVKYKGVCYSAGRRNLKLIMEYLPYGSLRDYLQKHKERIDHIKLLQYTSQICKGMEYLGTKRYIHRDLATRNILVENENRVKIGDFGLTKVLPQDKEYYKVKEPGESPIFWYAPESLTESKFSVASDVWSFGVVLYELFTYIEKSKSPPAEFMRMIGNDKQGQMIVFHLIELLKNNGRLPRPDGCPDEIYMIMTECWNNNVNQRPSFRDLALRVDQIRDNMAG

[12] = AUC (0-infinity) in rat at 10 mg/kg, iv; type: ADME, organism-based; set-up: time infinity, dose 10 mg/kg, route intravenous; details: plasma
[13] = Clearance in rat at 10 mg/kg, iv; type: ADME, organism-based; set-up: dose 10 mg/kg, route intravenous; details: in vivo
[14] = Half life in rat at 10 mg/kg, iv; type: ADME, organism-based; set-up: dose 10 mg/kg, route intravenous; details: in vivo
[15] = Volume of distribution at steady state in rat at 10 mg/kg, iv; type: ADME, organism-based; set-up: dose 10 mg/kg, route intravenous; details: in vivo, read-out: Vdss
[16] = AUC (0-infinity) in rat at 30 mg/kg, po; type: ADME, organism-based; set-up: time infinity, dose 30 mg/kg, route oral; details: plasma
[17] = Oral bioavailability in rat at 30 mg/kg, po; type: ADME, organism-based; details: in vivo
[18] = AUC (0-infinity) in mouse at 3 mg/kg, iv; type: ADME, organism-based; set-up: time infinity, dose 3 mg/kg, route intravenous; details: plasma
[19] = Clearance in mouse at 3 mg/kg, iv; type: ADME, organism-based; set-up: dose 3 mg/kg, route intravenous; details: in vivo
[20] = Half life in mouse at 3 mg/kg, iv; type: ADME, organism-based; set-up: dose 3 mg/kg, route intravenous; details: in vivo
[21] = Volume of distribution at steady state in mouse at 3 mg/kg, iv; type: ADME, organism-based; set-up: dose 3 mg/kg, route intravenous; details: in vivo, read-out: Vdss
[22] = AUC (0-infinity) in mouse at 50 mg/kg, po; type: ADME, organism-based; set-up: time infinity, dose 50 mg/kg, route oral; details: plasma
[23] = Oral bioavailability in mouse at 50 mg/kg, po; type: ADME, organism-based; details: in vivo
[24] = test system: Canis familiaris; assay: AUC (0-infinity) in dog at 1 mg/kg, iv; type: ADME, organism-based, Canis lupus familiaris, Plasma; set-up: time infinity, dose 1 mg/kg, route intravenous; details: in vivo
[25] = test system: Canis familiaris; assay: Half life in dog at 1 mg/kg, iv; type: ADME, organism-based, Canis lupus familiaris; set-up: dose 1 mg/kg, route intravenous; details: in vivo
[26] = test system: Canis familiaris; assay: Volume of distribution at steady state in dog at 1 mg/kg, iv; type: ADME, organism-based, Canis lupus familiaris; set-up: dose 1 mg/kg, route intravenous; details: in vivo
[27] = test system: Canis familiaris; assay: AUC (0-infinity) in dog at 10 mg/kg, po; type: ADME, organism-based, Canis lupus familiaris, Plasma; set-up: time infinity, dose 10 mg/kg, route oral; details: in vivo
[28] = test system: Canis familiaris; assay: Oral bioavailability in dog at 10 mg/kg, po; type: ADME, organism-based, Canis lupus familiaris; details: in vivo
[29] = Solubility in 20 mM acetate buffer at pH 4.0; type: physicochemical
[30] = test system: A2780; assay: Antitumor activity against human A2780 cells xenografted in nu/nu mouse assessed as tumor growth inhibition at 45 mg/kg, po bid for 5 days relative to untreated control; type: functional; details: A2780, 120 h, read-out: TGI
[31] = test system: A2780; assay: Antitumor activity against human A2780 cells xenografted in nu/nu mouse assessed as tumor growth inhibition at 90 mg/kg, po bid for 3 days relative to untreated control; type: functional; details: A2780, 72 h, read-out: TGI
[32] = test system: A2780; assay: Antitumor activity against human A2780 cells xenografted in nu/nu mouse assessed as tumor growth inhibition at 67.5 mg/kg, po bid for 3 days relative to untreated control; type: functional; details: A2780, 72 h, read-out: TGI
[33] = test system: A2780; assay: Antitumor activity against human A2780 cells xenografted in nu/nu mouse assessed as tumor growth inhibition administered twice daily for 3 or 5 days; type: functional, cell-based
[34] = test system: A2780; assay: Antitumor activity against human A2780 cells assessed as inhibition of cell growth; type: functional, cell-based
[35] = test system: A2780; assay: Antitumor activity against human A2780 cells assessed as inhibition of cell survival; type: functional, cell-based

## Cc1cn2c(-c3cn[nH]c3)cnc2c(Nc2cc([C@@H](C)N3C[C@@H](C)O[C@@H](C)C3)ns2)n1
[1]
  IC50: 1800 nM
[2]
  IC50: 710 nM
[3]
  IC50: 140 nM
[4]
  IC50: ≤ 4 nM
[5]
  IC50: ≤ 13 nM
[6]
  EC50: 28 nM
[7]
  IC50: 510 nM
[8]
  AUC(0-t) at 6 h: 4.6 µM·h
[9]
  IC50: 330 nM
[10]
  IC50: > 10 nM
[11]
  IC50: > 10 nM
[12]
  AUC(0-inf): 38.8 µM·h
[13]
  clearance: 10 mL/min/kg
[14]
  half-life: 5 h
[15]
  Vd: 1.6 L/kg
[16]
  AUC(0-inf): 57.7 µM·h
[17]
  bioavailability: 72%
[18]
  AUC(0-inf): 5.6 µM·h
[19]
  clearance: 20 mL/min/kg
[20]
  half-life: 3.9 h
[21]
  Vd: 1.5 L/kg
[22]
  AUC(0-inf): 86.4 µM·h
[23]
  bioavailability: 92%
[24]
  AUC: 3.4 µM·h
[25]
  t1/2: 4.8 h
[26]
  Vdss: 12 L/kg
[27]
  AUC: 2.2 µM·h
[28]
  F: 50%
[29]
  solubility: 4660 µg/mL (≈ 10.6 mM)
[30]
  inhibition in vivo at 45 mg/kg: 41%
[31]
  inhibition in vivo at 90 mg/kg: 79%
[32]
  inhibition in vivo at 67.5 mg/kg: 67%
[33]
  TGI: Dose-dependent effect
[34]
  EC50: 19 nM
[35]
  EC50: 20 nM
